Test results: ChEMBL document CHEMBL3272135, “Quantitative relationships between steroid structure and binding to putative progesterone receptors” (J Med Chem, 1977)

Assays:
[1] = target: T1, Progesterone receptor (Ovis aries) (UniProt Q28590); assay: Relative binding affinity to sheep progesterone receptor
T1 sequence (whole entry): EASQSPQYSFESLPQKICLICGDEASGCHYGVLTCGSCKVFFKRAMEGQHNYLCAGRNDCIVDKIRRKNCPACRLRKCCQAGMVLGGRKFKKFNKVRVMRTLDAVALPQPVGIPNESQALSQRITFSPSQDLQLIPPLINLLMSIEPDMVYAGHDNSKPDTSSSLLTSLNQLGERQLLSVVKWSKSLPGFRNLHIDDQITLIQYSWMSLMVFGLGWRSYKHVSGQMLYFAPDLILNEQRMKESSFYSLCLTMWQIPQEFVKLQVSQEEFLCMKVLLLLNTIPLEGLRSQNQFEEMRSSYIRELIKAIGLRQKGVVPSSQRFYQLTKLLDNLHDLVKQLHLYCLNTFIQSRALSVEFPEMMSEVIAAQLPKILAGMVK

Cavia porcellus = species: Cavia porcellus; assay: Relative binding affinity to guinea pig progesterone receptor
[2] = target: T2, Progesterone receptor (Oryctolagus cuniculus) (UniProt P06186); assay: Relative binding affinity to rabbit progesterone receptor
T2 sequence (whole entry): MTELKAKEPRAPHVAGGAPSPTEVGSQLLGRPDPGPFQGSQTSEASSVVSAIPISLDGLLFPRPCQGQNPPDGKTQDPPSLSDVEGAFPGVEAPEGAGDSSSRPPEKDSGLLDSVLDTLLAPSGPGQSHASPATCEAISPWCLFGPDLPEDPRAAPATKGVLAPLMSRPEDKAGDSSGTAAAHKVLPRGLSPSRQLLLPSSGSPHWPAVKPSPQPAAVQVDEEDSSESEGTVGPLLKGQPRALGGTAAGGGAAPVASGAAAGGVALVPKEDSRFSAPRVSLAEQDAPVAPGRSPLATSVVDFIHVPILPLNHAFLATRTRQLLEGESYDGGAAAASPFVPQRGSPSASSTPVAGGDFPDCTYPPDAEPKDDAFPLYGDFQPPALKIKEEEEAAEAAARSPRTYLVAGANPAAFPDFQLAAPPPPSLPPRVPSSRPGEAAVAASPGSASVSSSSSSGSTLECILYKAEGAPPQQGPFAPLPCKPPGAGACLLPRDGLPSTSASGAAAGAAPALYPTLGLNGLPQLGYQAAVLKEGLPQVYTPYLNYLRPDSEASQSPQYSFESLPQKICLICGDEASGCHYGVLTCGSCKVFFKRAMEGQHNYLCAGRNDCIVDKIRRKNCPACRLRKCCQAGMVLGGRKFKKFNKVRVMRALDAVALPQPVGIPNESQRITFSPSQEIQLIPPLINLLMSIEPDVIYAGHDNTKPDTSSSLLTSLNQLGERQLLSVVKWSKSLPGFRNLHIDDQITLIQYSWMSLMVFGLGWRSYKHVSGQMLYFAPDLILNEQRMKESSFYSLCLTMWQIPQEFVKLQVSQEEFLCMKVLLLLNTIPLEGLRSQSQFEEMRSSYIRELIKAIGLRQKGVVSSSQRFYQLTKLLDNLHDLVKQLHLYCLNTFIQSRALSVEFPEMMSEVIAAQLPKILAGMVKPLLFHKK

[3] = target: T3, Progesterone receptor (Homo sapiens) (UniProt P06401)
T3 sequence (whole entry): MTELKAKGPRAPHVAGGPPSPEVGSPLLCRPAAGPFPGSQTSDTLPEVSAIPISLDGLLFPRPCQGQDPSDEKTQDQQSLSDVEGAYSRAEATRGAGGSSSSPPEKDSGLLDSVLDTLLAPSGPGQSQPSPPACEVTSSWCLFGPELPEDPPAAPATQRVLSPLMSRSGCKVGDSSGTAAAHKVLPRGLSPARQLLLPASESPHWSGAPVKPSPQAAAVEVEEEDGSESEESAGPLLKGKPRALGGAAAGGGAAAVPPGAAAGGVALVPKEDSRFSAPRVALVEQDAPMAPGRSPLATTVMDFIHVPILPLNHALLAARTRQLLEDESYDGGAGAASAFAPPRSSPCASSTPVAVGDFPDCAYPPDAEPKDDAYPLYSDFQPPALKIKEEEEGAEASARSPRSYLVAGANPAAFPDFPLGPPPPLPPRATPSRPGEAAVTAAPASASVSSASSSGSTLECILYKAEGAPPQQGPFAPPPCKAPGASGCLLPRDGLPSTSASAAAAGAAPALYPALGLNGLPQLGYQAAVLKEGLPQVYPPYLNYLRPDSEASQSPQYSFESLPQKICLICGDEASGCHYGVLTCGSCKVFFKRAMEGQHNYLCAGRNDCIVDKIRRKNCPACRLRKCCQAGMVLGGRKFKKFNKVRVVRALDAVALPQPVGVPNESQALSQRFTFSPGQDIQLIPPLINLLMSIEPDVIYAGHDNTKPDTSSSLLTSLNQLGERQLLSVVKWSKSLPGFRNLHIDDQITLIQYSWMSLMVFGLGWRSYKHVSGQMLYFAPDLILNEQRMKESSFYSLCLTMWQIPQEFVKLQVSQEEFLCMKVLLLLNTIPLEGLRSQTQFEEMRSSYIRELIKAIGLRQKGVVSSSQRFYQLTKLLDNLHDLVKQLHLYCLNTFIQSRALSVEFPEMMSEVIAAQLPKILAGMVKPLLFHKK

Row | Structure (SMILES) | log(RBA) [1] | log(RBA) (Cavia porcellus) | log(RBA) [2] | log(RBA) [3]
1 | CC(=O)O[C@]1(C(C)=O)CC[C@H]2[C@@H]3CCC4=C(O)C(=O)CC[C@]4(C)[C@H]3CC[C@@]21C | 1.2 | -0.4 | 1.77 | 1.62
2 | C#C[C@]1(OC(C)=O)CC[C@H]2[C@@H]3CCC4=CC(=O)CC[C@@H]4[C@H]3CC[C@@]21C | 1.04 | 0.78 | 2.05 | 1.32
3 | C#C[C@]1(O)CC[C@H]2[C@@H]3CCC4=CCCC[C@@H]4[C@H]3CC[C@@]21C | 0.602 | -0.52 | 1.11 | 0.7
4 | CC[C@]12CC[C@H]3[C@@H](CCC4=CC(=O)CC[C@@]43C)[C@@H]1CC[C@@H]2C(C)=O | 1.04 | 1.63 | 1.5 | 1.43
5 | CC(=O)[C@H]1CC[C@H]2[C@@H]3CC[C@H]4CC(=O)CC[C@]4(C)[C@H]3CC[C@]12C | 1.48 | 1.4 | 1.74 | 1.48
6 | C=CC[C@]1(O)CC[C@H]2[C@@H]3CCC4=CCCC[C@@H]4[C@H]3CC[C@@]21C | 0.6 | -0.7 | 1.08 | 0.48
7 | C#C[C@]1(O)CC[C@H]2[C@@H]3CCC4=CC(=O)CCC4=C3C=C[C@@]21CCC | – | – | 0.7 | –
8 | CCCCCC(=O)O[C@]1(C(C)=O)CC[C@H]2[C@@H]3CCC4=CC(=O)CC[C@]4(C)[C@H]3CC[C@@]21C | – | – | 1.88 | 1.88
9 | CC(=O)[C@H]1CC[C@H]2[C@@H]3CC=C4C[C@@H](O)CC[C@]4(C)[C@H]3CC[C@]12C | – | -0.52 | -0.301 | -0.69
10 | C#C[C@]1(O)CC[C@H]2[C@H]3[C@H](CC[C@@]21C)[C@H]1CCCC=C1C[C@H]3C | 0.301 | -0.7 | 0.954 | 0.3
11 | CC(=O)[C@@]12O[C@@H]1C[C@H]1[C@@H]3CCC4=CC(=O)CC[C@]4(C)[C@H]3CC[C@@]12C | -0.52 | -0.046 | -0.097 | 0
12 | CC(=O)[C@H]1CC[C@H]2[C@@H]3CCC4=CC(=O)C=C[C@]4(C)[C@H]3CC[C@]12C | 1.2 | 1.64 | 1.3 | 1.48
13 | CC(=O)[C@@]12[C@@H](C[C@H]3[C@@H]4CCC5=CC(=O)CC[C@]5(C)[C@H]4CC[C@@]31C)C2(C)C | 1.9 | 1 | 2.38 | 2.11
14 | CC(=O)O[C@]1(C(C)=O)CC[C@H]2[C@@H]3CCC4=CC(=O)CC[C@]4(C)[C@H]3CC[C@@]21C | 1.6 | -0.7 | 1.72 | 1.83
15 | CC[C@@H]1C[C@H]2[C@@H]3CCC4=CC(=O)CC[C@]4(C)[C@H]3CC[C@]2(C)[C@H]1C(C)=O | 1.87 | 1.08 | 1.98 | 1.98
16 | CC(=O)[C@@]1(C)CC[C@H]2[C@@H]3CCC4=CC(=O)CCC4=C3C=C[C@@]21C | – | – | 1.74 | –
17 | CC[C@@H]1C[C@H]2[C@@H]3CCC4=CC(=O)CC[C@@H]4[C@H]3CC[C@]2(C)[C@H]1C(=O)CO | 1.98 | 1.4 | 2.44 | 2.16
18 | C[C@]12C[C@H](O)[C@H]3[C@@H](CCC4=CC(=O)CC[C@@]43C)[C@@H]1CC[C@@H]2C(=O)CO | 0 | 0.447 | 0.02 | 0.3
19 | CC(=O)[C@H]1CC[C@H]2[C@@H]3CCC4=CC(=O)CCC4=C3CC[C@]12C | – | – | 2 | –

Row | Structure (SMILES) | log(RBA) [1] | log(RBA) (Cavia porcellus) | log(RBA) [2] | log(RBA) [3]
20 | CC(=O)[C@H]1CC[C@H]2[C@@H]3CCC4=CC(=O)CC[C@]4(C)[C@H]3C(=O)C[C@]12C | -0.097 | 0 | 0.301 | 0
21 | C#C[C@]1(OC(C)=O)CC[C@H]2[C@@H]3CCC4=CCCC[C@@H]4[C@H]3CC[C@@]21C | -1 | -2 | 0 | -0.7
22 | CC(=O)[C@H]1CC[C@H]2[C@@H]3CCC4=CC(=O)CC[C@]4(C)[C@H]3[C@H](O)C[C@]12C | -0.15 | -0.097 | 0.301 | 0.48
23 | CC(=O)[C@@]1(O)CC[C@H]2[C@@H]3CCC4=CC(=O)CC[C@]4(C)[C@H]3CC[C@@]21C | -0.3 | -0.52 | -0.097 | -0.15
24 | CC(=O)O[C@]1(C(C)=O)CC[C@H]2[C@@H]3C[C@H](C)C4=CC(=O)CC[C@]4(C)[C@H]3CC[C@@]21C | 1.86 | 1.11 | 2 | 2.29
25 | CC(=O)[C@H]1CC[C@H]2[C@@H]3CC[C@@H]4CC(=O)CC[C@]4(C)[C@H]3CC[C@]12C | 0.6 | 0.7 | 1.08 | 1.08
26 | C#C[C@]1(O)CC[C@H]2[C@@H]3CCC4=C(CCC(=O)C4)[C@H]3CC[C@@]21C | 0.845 | 3 | 1.56 | 1.34
27 | CC(=O)[C@H]1CC[C@H]2[C@@H]3CCC4=CC(=O)CC[C@]4(C)[C@H]3CC[C@]12C | 2 | 2 | 2 | 2
28 | CC(=O)OCC(=O)[C@H]1CC[C@H]2[C@@H]3CCC4=CC(=O)CC[C@]4(C)[C@H]3CC[C@]12C | 1 | 1.34 | 1.69 | 1
29 | C[C@]12CCC(=O)C[C@@H]1CC[C@@H]1[C@@H]2CC[C@]2(C)[C@@H](O)CC[C@@H]12 | 0 | – | – | 0.3
30 | C[C@]12CC[C@H]3[C@@H](CCC4=CC(=O)CC[C@@H]43)[C@@H]1CC[C@@H]2O | 1 | 1.6 | 1 | 1.14
31 | C#C[C@]1(O)CC[C@H]2[C@@H]3CCC4=CC(=O)CC[C@@H]4[C@H]3CC[C@@]21CCC | – | – | 1.54 | –
32 | C[C@]12CC[C@H]3[C@@H](CCC4=CC(=O)CC[C@@]43C)[C@@H]1CC[C@@H]2O | 0 | 0 | -0.22 | –
33 | CCC(=O)[C@@]1(C)CC[C@H]2[C@@H]3CCC4=CC(=O)CCC4=C3CC[C@@]21C | – | – | 2.48 | –
34 | CC(=O)[C@@]1(C)CC[C@H]2[C@@H]3CCC4=CC(=O)CCC4=C3CC[C@@]21C | – | – | 2.3 | –
35 | C#C[C@]1(O)CC[C@H]2[C@@H]3CCC4=CC(=O)CCC4=C3C=C[C@@]21C | – | – | 1.3 | –
36 | CC(=O)[C@H]1CC[C@H]2[C@@H]3CCC4=CC(=O)CCC4=C3C=C[C@]12C | – | – | 1.3 | –
37 | C#C[C@]1(O)CC[C@H]2[C@@H]3CCC4=CC(=O)CCC4=C3C=C[C@@]21CC | – | – | 1.3 | –
38 | CC(=O)[C@@]1(C)CC[C@H]2[C@@H]3CCC4=CC(=O)CC[C@@H]4[C@H]3CC[C@@]21C | – | – | 2.7 | –
